Measured values reported in patent publication US20260242874A1, “METHOD OF PREDICTING RESPONSE TO TREATMENT” (LINNANE PHARMA AB, priority 2023, published 2026).

Assays:
[1] = test system: non-muscle invasive bladder cancer tumors; experiment: Tumor histopathology of biopsies; type: in vivo, human; settings: treated tumors compared to the placebo group
Description: The tumor response was further evaluated by histopathology. […] A complete response was confirmed by a lack of tumor tissue in the control biopsy or presence of minor residual tissue stroma without tumor cells. In the partial responders, fragmentation and cell shedding left few intact papilli and the tissue surface appeared denuded. In addition, tumor tissue surrounding the target lesion was affected in the responding patients, including satellite tumors, which had disappeared.
Tumor biopsies, collected at the time of surgery were evaluated by histopathology, using established parameters for scoring of Grade and Stage/Invasiveness. Tissue samples were analyzed by a designated study uro-pathologist. Both grading classifications (WHO 1973 and 2004/2016) were used. Biopsies from healthy tissue areas distant from the tumor were collected for comparison.

bladder tumor cells = experiment: Cell shedding into urine after intravesical instillation; type: in vivo, human
Experimental: Intravesical alpha1-oleate instillations triggered a rapid tumor response, which was quantified by comparing the pre-instillation sample in each patient to the first urine sample obtained post instillation (≤2 hours).
To quantify the shedding of cells and cell clusters into the urine, samples were obtained from each patient prior to and after each instillation of alpha1-oleate or placebo (Visit 1-Visit 6). Cell shedding was quantified by counting the total number of epithelial cells in a unit of uncentrifuged urine under light microscopy, using a hemocytometer chamber. Changes in cell shedding were quantified at each visit, by comparing cell numbers in samples obtained before and after each instillation. The cell clusters were scored based on the examination of these samples by an experienced pathologist on a range of 0-2 where 0=no clusters and 2=the highest number of clusters.

shed bladder tumor cells = experiment: DNA strand breaks by TUNEL staining of shed cells; type: in vivo, human; settings: shed cells post-instillation vs pre-instillation, all treated patients
Experimental: Double strand DNA breaks were quantified by TUNEL staining, comparing shed cells post alpha1-oleate instillation, to the pre-instillation samples.
DNA fragmentation was detected using the terminal deoxynucleotidyl transferase dUTP nick end-labelling (TUNEL) assay (Click-iT TUNEL Alexa Fluor 488 imaging assay kit, ThermoFisher). Tissue sections were de-paraffinized with xylene followed by serial dehydration with ethanol (100, 95, 75 and 50%). Dehydrated sections were fixed (4% PFA, 15 min), permeabilized (DNase-free Protease K solution 20 μg/mL, 15 min) and incubated with TUNEL reaction mixture containing TdT for 60 min at 37° C. After the TUNEL reaction, sections were incubated with Click-iT reaction mixture (30 min, 37° C.). Sections were counterstained with DAPI (1 μg/mL, 5 minutes), mounted in Fluoromount aqueous mounting media, and analyzed by fluorescence microscopy (Zeiss). Fluorescence intensities were quantified by ImageJ and net mean fluorescence intensity calculated after subtraction of background fluorescence.

[2] = test system: cancer related genes in bladder tumors; experiment: Gene expression analysis (RNA sequencing) of tumors; type: in vivo, human
Description: The tumor response was characterized in greater detail by sequencing of RNA extracted from tumor tissue obtained at TURB and from biopsies obtained from adjacent tissue with a healthy appearance.
Individual tumors in patients treated with alpha1-oleate were defined as complete responders (CR), if the tumor was removed, partial responders (PR) if the tumor size was reduced, stable disease if the tumor size was unchanged (SD) or as non-responders, if the tumor size increased (Cut off=25% change in tumor size) (FIG. 1a). The effects of alpha1-oleate on gene expression were further examined for individual patients and tumors, using […], and differences were detected relative to the clinical treatment response of each tumor. By Principal component analysis (PCA FIG. 1b) the majority of responding tumors formed a cluster with a similar overall gene expression profile.
RNA was extracted from tissues stabilized in RNAlater using the AllPrep DNA/RNA/miRNA Universal Kit. Disruption was in the TissueLyser system and CK28 Precellys tubes and by homogenization in the QIAshredder homogenizer. The quantity and quality of the RNA samples were evaluated using NanoDrop and Agilent 2100 Bioanalyzer. RNA samples were prepared by Illumina TruSeq Stranded mRNA Library Prep Kit (20020594), and libraries were multiplexed and sequenced using NextSeq 500/550 High Output Kits (v2.5 2×75 Cycles) with an average of 22 million reads per sample. Raw sequencing data was demultiplexed using bcl2fastq (version 2.18) and RSEM (1.3) was used for abundance estimation using the human genome release 37/Ensemble 75. Samples were thoroughly QCed and visualized using dimensionality reduction (i.e PCA), MA-plots as well as RNA-seq intrinsic biases (such as GC bias, transcriptome complexity and alignment quality). Differential expression analysis was performed using R (version 3.4) and the packages limma and DESeq2. Fold change were calculated by comparing tumors in the treated to the placebo group. Relative expression levels were analyzed and genes with an absolute fold change >2.0 and P<0.05 were considered as differentially expressed. Heat-maps were constructed using the Gitools 2.1.1 software. Differentially expressed genes were functionally characterized using the Ingenuity Pathway Analysis version 57662101 (IPA, Qiagen) software.
In a clinical study from an ongoing randomized, placebo-controlled phase II trial in patients with non-muscle invasive bladder cancer (NMIBC), treatment with the tumor-killing peptide-lipid complex Alpha1-Hamlet, by instillations to the patients' bladders, has shown promising therapeutic effects. Tumor tissue samples of patients (obtained post-treatment at visit number 6) were analyzed.

adiponectin = experiment: Adiponectin-ELISA of urine samples; type: in vivo, human; settings: treated patients vs placebo, P<0.001
Experimental: To investigate levels of adiponectin protein in the urine samples of patients, an Adiponectin-ELISA test (Proteintech) was performed. The signal (absorbance) values were measured at 480 nm and interpolated to concentration (pg/mL) values using a linear regression statistical analysis. […] Graph showing urine adiponectin levels in both groups, with samples taken pre Visit 1, post Visit 1, Post Visit 3 and Post Visit 6. Line show change in median urine adiponectin levels (FIG. 4). There was statistically significant positive correlation between number of cells (shed) in urine samples and measure adiponectin levels (P=0,002), using linear regression (FIG. 4). Statistical analysis was done in GraphPad Prism.

NMIBC = experiment: Overall tumor response in patients with NMIBC (clinical and molecular end points); type: in vivo, human
Description: Selecting relevant treatment end points is especially challenging for conditions where cure is elusive. New molecular tools may offer increased resolution of the disease response, to complement clinical observation and understand the potential of new drug candidates. This study used a combination of clinical and molecular tools to define the tumor response to alpha1-oleate in patients with NMIBC. In addition to the evaluation of the change in tumor size, the tumor response was defined by the shedding of tumor cells and fragments into the urine, by the uptake of alpha1-oleate by the tumor and by evidence of tumor cell specific apoptosis. Gene expression analysis of tumor RNA further identified interesting differences between the groups defined as CR, PR and NR by visual inspection.
After diagnosis and informed consent, the subjects received intra-vesical instillations of either alpha1-oleate or placebo on six occasions during one month preceding a scheduled transurethral resection (TURB). A safety follow-up was performed 52 days after the first instillation.

[3] = test system: cancer related genes in bladder tumors; experiment: Gene expression analysis (RNA sequencing) of tumors; type: in vivo, human; settings: log FC≤−0.10; individual tumors
tumor cells = settings: cited from earlier work
skin papillomas = settings: topical application; cited from earlier work
bladder cancer cells = settings: local instillations; cited from earlier work

Q: Which “tumor response by histopathology” value [1] does the source give for “alpha1-oleate: tumor-killing peptide-lipid complex of the synthetic alpha1 peptide (aa 1-39 of human alpha-lactalbumin) and oleate” here?
A: Its value is “Significant changes”.

Q: What about the “cell numbers in urine post instillation” value (bladder tumor cells; at each visit compared to each pre-instillation sample) of the same molecule?
A: The value was “highly significant increase”.

Q: What about the cell shedding (bladder tumor cells; first urine sample post instillation (≤2 hours)) of the same molecule?
A: Its cell shedding is “detected in all patients”.

Q: And the “TUNEL staining (double strand DNA breaks)” value (shed bladder tumor cells)?
A: The value was “marked increase”.

Q: And the “ADIPOQ gene expression FC” value ([2]; 8.5 mM treated patients compared to placebo treated patients, tumor tissue post-treatment at visit 6)?
A: Its value is −5353.7.

Q: And the “number of genes regulated (heat map analysis)” value ([2]; RNA from tumor tissue obtained at TURB)?
A: Its value is “over 3500”.

Q: And the “PRAME log FC” value ([2]; all treated tumors)?
A: Its value is at most −10.

Q: And the “PTPRT log FC” value ([2]; all treated tumors)?
A: The value was at most −10.

Q: What about the EGR3 expression ([2]; in vivo) of the same molecule?
A: The EGR3 expression was “strongly downregulated”.

Q: And the “bladder cancer related genes” value ([2]; in vivo)?
A: Its value is “strongly inhibited”.

Q: And the “tumor microenvironment pathway genes (VEGFD, TGFB2, TGFB3, FGF1, FGF5, FGF7, FGF10, IGF1)” value ([2]; in vivo)?
A: The value was “downregulated”.

Q: And the “ADIPOQ dependent molecules downregulated” value ([2]; network analysis)?
A: Its value is 66.

Q: What about the “ADIPOQ dependent molecules strongly regulated” value ([2]; network analysis) of the same molecule?
A: The value was 78.

Q: And the “ADIPOQ dependent molecules upregulated” value ([2]; network analysis)?
A: The value was 12.

Q: What about the “inhibited genes that were bladder cancer related” value ([2]; of the 297 inhibited genes) of the same molecule?
A: The value was 31/297.

Q: And the “innate immune response genes” value ([2]; pathway analysis, cytokine storm signaling and G protein coupled receptor signaling)?
A: The value was “strongly down-regulated”.

Q: What about the urine adiponectin levels (adiponectin) of the same molecule?
A: Its urine adiponectin levels is “significantly higher”.

Q: And the “responders by tumor cell shedding, apoptosis and inhibition of cancer related genes” value (NMIBC)?
A: Its value is “all patients in this study were definable as responders”.

Q: What about the “number of genes strongly down-regulated in all treated tumors” value [3] of the same molecule?
A: The value was 297.

B1: BAMLET: complex made by mixing bovine alpha-lactalbumin with oleic acid (protein, UniProt P00711 20-142, looked up)
Alpha-lactalbumin: EQLTKCEVFRELKDLKGYGGVSLPEWVCTTFHTSGYDTQAIVQNNDSTEYGLFQINNKIWCKDDQNPHSSNICNISCDKFLDDDLTDDIMCVKKILDKVGINYWLAHKALCSEKLDQWLCEKL
modifications: oleic acid complex
Q: With B1 as the molecule, how does the “effects on tumour cells compared with HAMLET” value (tumor cells; Rammer et al. (2010)) read?
A: Its value is “qualitatively similar effects”.

B2: HAMLET: human alpha-lactalbumin made lethal to tumor cells; complex of partially unfolded α-lactalbumin and oleic acid (protein, UniProt P00709 20-142, looked up)
Alpha-lactalbumin: KQFTKCELSQLLKDIDGYGGIALPELICTMFHTSGYDTQAIVENNESTEYGLFQISNKLWCKSSQVPQSRNICDISCDKFLDDDITDDIMCAKKILDIKGIDYWLAHKALCTEKLEQWLCEKL
modifications: oleic acid complex
Q: For B2, which “tumoricidal activity in vitro” value (tumor cells) is on record?
A: The value was “kills many types of tumor cells”.

Q: What about the “effect on skin papillomas” value (skin papillomas) of the same molecule?
A: Its value is “removed or reduced skin papillomas”.

Q: What about the “effect on bladder cancer cells” value (bladder cancer cells) of the same molecule?
A: Its value is “killed bladder cancer cells but not healthy cells in surrounding tissues”.

Q: What about the “effect on tumor size” value (bladder cancer cells) of the same molecule?
A: Its value is “caused a reduction in tumor size”.
